Data from ChEMBL document CHEMBL1138648, “Synthesis of new N-(2-(trifluoromethyl)pyridin-4-yl)anthranilic acid derivatives and their evaluation as anticancer agents” (2004).

Legend:
Type in all cases: functional
[1] = tested on: M14; test: Growth inhibitory activity against Melanoma M14 cell line was determined; conditions: Homo sapiens
[2] = tested on: K562; test: Growth inhibitory activity against Leukemia K-562 cell line was determined; conditions: Homo sapiens
[3] = tested on: U-251; test: Growth inhibitory activity against CNS cancer U251 cell line was determined; conditions: Homo sapiens
[4] = tested on: MOLT-4; test: Growth inhibitory activity against Leukemia MOLT-4 cell line was determined; conditions: Homo sapiens
[5] = tested on: UACC-62; test: Growth inhibitory activity against Melanoma UACC-62 cell line was determined; conditions: Homo sapiens
[6] = tested on: SF-268; test: Growth inhibitory activity against CNS cancer SF-268 cell line was determined; conditions: Homo sapiens
[7] = tested on: SF-295; test: Growth inhibitory activity against CNS cancer SF-295 cell line was determined; conditions: Homo sapiens
[8] = tested on: SF-539; test: Growth inhibitory activity against CNS cancer SF-539 cell line was determined; conditions: Homo sapiens
[9] = tested on: SNB-19; test: Growth inhibitory activity against CNS cancer SNB-19 cell line was determined; conditions: Homo sapiens
[10] = tested on: CCRF-CEM; test: Growth inhibitory activity against Leukemia CCRF-CEM cell line was determined; conditions: Homo sapiens
[11] = tested on: LOX IMVI; test: Growth inhibitory activity against Melanoma LOX IMVI cell line; conditions: Homo sapiens
[12] = tested on: SK-MEL-5; test: Growth inhibitory activity against Melanoma SK-MEL-5 cell line was determined; conditions: Homo sapiens
[13] = tested on: A498; test: Growth inhibitory activity against Renal cancer A498 cell line was determined; conditions: Homo sapiens
[14] = tested on: ACHN; test: Growth inhibitory activity against Renal cancer ACHN cell line was determined; conditions: Homo sapiens
[15] = tested on: HT-29; test: Growth inhibitory activity against colon cancer HT-29 cell line was determined; conditions: Homo sapiens
[16] = tested on: MDA-MB-435; test: Growth inhibitory activity against Breast cancer MDA-MB-435 cell line was determined; conditions: Homo sapiens
[17] = tested on: NCI/ADR-RES; test: Growth inhibitory activity against Breast cancer NCI/ADR-RES cell line was determined; conditions: Homo sapiens
[18] = tested on: MDA-MB-231; test: Growth inhibitory activity against Breast cancer MDA-MB-231/ATCC cell line was determined; conditions: Homo sapiens
[19] = tested on: EKVX; test: Growth inhibitory activity against non small cell lung cancer EKVX cell line was determined; conditions: Homo sapiens
[20] = tested on: NCI-H460; test: Growth inhibitory activity against non small cell lung cancer H460 cell line was determined; conditions: Homo sapiens
[21] = tested on: NCI-H522; test: Growth inhibitory activity against non small cell lung cancer H522 cell line was determined; conditions: Homo sapiens
[22] = tested on: HOP-62; test: Growth inhibitory activity against non small cell lung cancer HOP-62 cell line was determined; conditions: Homo sapiens
[23] = tested on: NCI-H23; test: Growth inhibitory activity against non small cell lung cancer NCI-H23 cell line was determined; conditions: Homo sapiens
[24] = tested on: NCI-H226; test: Growth inhibitory activity against non small cell lung cancer NCI-H226 cell line was determined; conditions: Homo sapiens
[25] = tested on: A549; test: Growth inhibitory activity against non small cell lung cancer A549/ATCC cells; conditions: Homo sapiens
[26] = tested on: NCI-H322M; test: Growth inhibitory activity against non small cell lung cancer NCI-H322M cell line was determined; conditions: Homo sapiens
[27] = tested on: HOP-92; test: Growth inhibitory activity against non small cell lung cancer HOP-92 cell line was determined; conditions: Homo sapiens
[28] = tested on: UACC-257; test: Growth inhibitory activity against Melanoma UACC-257 cell line was determined; conditions: Homo sapiens
[29] = tested on: NCI-H460; test: In vitro percent of proliferation of vehicle treated NCI-H460 human lung cell lines was determined at 0.0010 M concentration
[30] = tested on: KM12; test: Growth inhibitory activity against colon cancer KM12 cell line was determined; conditions: Homo sapiens
[31] = tested on: MCF7; test: Growth inhibitory activity against Breast cancer MCF-7 cell line was determined; conditions: Homo sapiens
[32] = tested on: HL-60; test: Growth inhibitory activity against Leukemia HL-60(TB) cell line was determined; conditions: Homo sapiens
[33] = tested on: RPMI-8226; test: Growth inhibitory activity against Leukemia RPMI-8226 cell line was determined; conditions: Homo sapiens
[34] = tested on: SR; test: Growth inhibitory activity against Leukemia SR cell line was determined; conditions: Homo sapiens
[35] = tested on: SK-MEL-28; test: Growth inhibitory activity against Melanoma SK-MEL-28 cell line was determined; conditions: Homo sapiens
[36] = tested on: 786-0; test: Growth inhibitory activity against Renal cancer 786-0 cell line was determined; conditions: Homo sapiens
[37] = tested on: SN12C; test: Growth inhibitory activity against Renal cancer SN12C cell line was determined; conditions: Homo sapiens
[38] = tested on: TK-10; test: Growth inhibitory activity against Renal cancer TK-10 cell line was determined; conditions: Homo sapiens
[39] = tested on: CAKI-1; test: Growth inhibitory activity against Renal cancer CAKI-1 cell line was determined; conditions: Homo sapiens
[40] = tested on: HCT-15; test: Growth inhibitory activity against colon cancer HCT-15 cell line was determined; conditions: Homo sapiens
[41] = tested on: SW-620; test: Growth inhibitory activity against colon cancer SW-620 cell line was determined; conditions: Homo sapiens
[42] = tested on: BT-549; test: Growth inhibitory activity against Breast cancer BT-549 cell line was determined; conditions: Homo sapiens
[43] = tested on: PC-3; test: Growth inhibitory activity against Prostate cancer PC-3 cell line was determined; conditions: Homo sapiens
[44] = tested on: RXF 393; test: Growth inhibitory activity against Renal cancer RXF 393 cell line was determined; conditions: Homo sapiens
[45] = tested on: HCT-116; test: Growth inhibitory activity against colon cancer HCT116 cell line was determined; conditions: Homo sapiens
[46] = tested on: Hs-578T; test: Growth inhibitory activity against Breast cancer HS 578T cell line was determined; conditions: Homo sapiens
[47] = tested on: COLO 205; test: Growth inhibitory activity against colon cancer COLO 205 cell line was determined; conditions: Homo sapiens
[48] = tested on: HCC 2998; test: Growth inhibitory activity against colon cancer HCC2998 cell line was determined; conditions: Homo sapiens
[49] = tested on: OVCAR-3; test: Growth inhibitory activity against Ovarian cancer OVCAR-3 cell line was determined; conditions: Homo sapiens
[50] = tested on: OVCAR-4; test: Growth inhibitory activity against Ovarian cancer OVCAR-4 cell line was determined; conditions: Homo sapiens
[51] = tested on: OVCAR-5; test: Growth inhibitory activity against Ovarian cancer OVCAR-5 cell line was determined; conditions: Homo sapiens
[52] = tested on: OVCAR-8; test: Growth inhibitory activity against Ovarian cancer OVCAR-8 cell line was determined; conditions: Homo sapiens
[53] = tested on: SK-OV-3; test: Growth inhibitory activity against Ovarian cancer SK-OV-3 cell line was determined; conditions: Homo sapiens
[54] = tested on: DU-145; test: Growth inhibitory activity against Prostate cancer DU-145 cell line was determined; conditions: Homo sapiens
[55] = tested on: SF-268; test: In vitro percent of proliferation of vehicle treated SF-268 human CNS cell lines was determined at 0.0010 M concentration
[56] = tested on: MCF7; test: In vitro percent of proliferation of vehicle treated MCF-7 human breast cell lines was determined at 0.0010 M concentration

Molecule `O=C(Oc1cccnc1)c1ccccc1Nc1ccnc(C(F)(F)F)c1` has a GI50 [1] of 0.03 µM, a GI50 [2] of 0.04 µM and a GI50 [3] of 0.52 µM. It also gave a GI50 [4] of 0.03 µM, a GI50 [5] of 0.35 µM and a GI50 [6] of 0.06 µM. It also gave a GI50 [7] of 0.31 µM, a GI50 [8] of 0.01 µM and a GI50 [9] of 0.33 µM. It also gave a GI50 [10] of 0.03 µM, a GI50 [11] of 0.05 µM and a GI50 [12] of 0.17 µM. For the same molecule, the GI50 [13] was 0.52 µM, the GI50 [14] was 0.26 µM and the GI50 [15] was 0.05 µM. The GI50 [16] was 0.06 µM, the GI50 [17] was 0.08 µM and the GI50 [18] was 0.39 µM. For the same molecule, the GI50 [19] was 0.39 µM, the GI50 [20] was 0.34 µM and the GI50 [21] was 0.41 µM. The GI50 [22] was 0.01 µM, the GI50 [23] was 0.06 µM and the GI50 [24] was 0.51 µM. The GI50 [25] was 0.72 µM, the GI50 [26] was 2.9 µM and the GI50 [27] was 0.48 µM. For the same molecule, the GI50 [28] was 55 µM, the Proliferation [29] was 22% and the GI50 [30] was 0.31 µM. The GI50 [31] was 0.16 µM, the GI50 [32] was 44 µM and the GI50 [33] was 0.05 µM. The GI50 [34] was 0.01 µM, the GI50 [35] was 0.66 µM and the GI50 [36] was 0.27 µM. For the same molecule, the GI50 [37] was 0.41 µM, the GI50 [38] was 0.27 µM and the GI50 [39] was 0.05 µM. The GI50 [40] was 0.29 µM, the GI50 [41] was 0.06 µM and the GI50 [42] was 0.01 µM. For the same molecule, the GI50 [43] was 0.42 µM, the GI50 [44] was 0.34 µM and the GI50 [45] was 0.03 µM. It also gave a GI50 [46] of 0.57 µM, a GI50 [47] of 0.14 µM and a GI50 [48] of 0.36 µM. It also gave a GI50 [49] of 0.14 µM, a GI50 [50] of 0.46 µM and a GI50 [51] of 0.49 µM. For the same molecule, the GI50 [52] was 0.69 µM, the GI50 [53] was 0.25 µM and the GI50 [54] was 0.22 µM. The Proliferation [55] was 75% and the Proliferation [56] was 62%.
`O=C(Oc1c(Cl)cc(Cl)cc1Cl)c1ccccc1Nc1ccnc(C(F)(F)F)c1` showed a GI50 [1] of 2.1 µM, a GI50 [2] of 2.4 µM and a GI50 [3] of 3 µM. The GI50 [4] was 100 µM, the GI50 [5] was 1.7 µM and the GI50 [6] was 3.9 µM. The GI50 [7] was 4.2 µM, the GI50 [9] was 7.1 µM and the GI50 [11] was 2 µM. For the same molecule, the GI50 [12] was 3.1 µM, the GI50 [14] was 2.4 µM and the GI50 [15] was 4.6 µM. The GI50 [16] was 1.6 µM, the GI50 [18] was 3.2 µM and the GI50 [19] was 3.3 µM. It also gave a GI50 [20] of 3.4 µM, a GI50 [21] of 5.7 µM and a GI50 [22] of 2.7 µM. The GI50 [23] was 2.6 µM, the GI50 [24] was 5.9 µM and the GI50 [25] was 3.9 µM. For the same molecule, the GI50 [26] was 20 µM, the GI50 [27] was 100 µM and the GI50 [28] was 12 µM. The Proliferation [29] was 9%, the GI50 [30] was 4.1 µM and the GI50 [31] was 4.7 µM. The GI50 [32] was 3.9 µM, the GI50 [35] was 24 µM and the GI50 [36] was 2.9 µM. It also gave a GI50 [37] of 3.1 µM, a GI50 [38] of 3.4 µM and a GI50 [39] of 7.1 µM. For the same molecule, the GI50 [40] was 2.7 µM, the GI50 [41] was 4.6 µM and the GI50 [42] was 2.4 µM. The GI50 [43] was 15 µM, the GI50 [44] was 9.5 µM and the GI50 [45] was 1.7 µM. For the same molecule, the GI50 [46] was 2.6 µM, the GI50 [47] was 6.3 µM and the GI50 [49] was 4.3 µM. The GI50 [51] was 4.1 µM, the GI50 [52] was 3 µM and the Proliferation [55] was 55%. For the same molecule, the Proliferation [56] was 12%.
For `COc1cccc(OC(=O)c2ccccc2Nc2ccnc(C(F)(F)F)c2)c1`, the GI50 [1] was 1.3 µM, the GI50 [2] was 0.74 µM and the GI50 [3] was 2.9 µM. For the same molecule, the GI50 [4] was 0.69 µM, the GI50 [5] was 3.1 µM and the GI50 [6] was 4.7 µM. The GI50 [7] was 2.5 µM, the GI50 [9] was 3.5 µM and the GI50 [11] was 1.1 µM. The GI50 [12] was 2.2 µM, the GI50 [14] was 3.4 µM and the GI50 [15] was 3.7 µM. The GI50 [16] was 1 µM, the GI50 [18] was 2.1 µM and the GI50 [19] was 6.6 µM. For the same molecule, the GI50 [20] was 4.1 µM, the GI50 [21] was 7.6 µM and the GI50 [22] was 2.8 µM. It also gave a GI50 [23] of 2 µM, a GI50 [24] of 8.1 µM and a GI50 [25] of 3.2 µM. It also gave a GI50 [26] of 7.4 µM, a GI50 [27] of 5.7 µM and a GI50 [28] of 5.4 µM. It also gave a Proliferation [29] of 13%, a GI50 [30] of 2.6 µM and a GI50 [31] of 7.6 µM. For the same molecule, the GI50 [32] was 2.1 µM, the GI50 [33] was 1 µM and the GI50 [35] was 12 µM. The GI50 [36] was 3.4 µM, the GI50 [37] was 5.4 µM and the GI50 [38] was 11 µM. It also gave a GI50 [39] of 2.7 µM, a GI50 [40] of 2.8 µM and a GI50 [41] of 4.4 µM. For the same molecule, the GI50 [42] was 8.1 µM, the GI50 [43] was 3.2 µM and the GI50 [44] was 21 µM. The GI50 [45] was 1.1 µM, the GI50 [46] was 4.9 µM and the GI50 [47] was 2.2 µM. For the same molecule, the GI50 [49] was 1.6 µM, the GI50 [51] was 3.5 µM and the GI50 [52] was 3.6 µM. For the same molecule, the Proliferation [55] was 43% and the Proliferation [56] was 42%.
